Laboratory results published in patent publication US20030203373A1 (priority 2002, published 2003).
pIC50: −log10 of the molar value. Values joined by “and” are separate entries in the source; they are usually repeats but may differ in a detail not shown here. Identical values can stand only once. Ends that are not written are not given here.

Target: T1, ACE from pig kidney (Sus scrofa, UniProt F1RRW5)
T1 construct: 1 mU ACE from pig kidney (EC 3.4.15.1 (Sigma)); purchased Sigma; host or cells: pig kidney (tissue-derived enzyme)
T1 sequence (F1RRW5 34-1309): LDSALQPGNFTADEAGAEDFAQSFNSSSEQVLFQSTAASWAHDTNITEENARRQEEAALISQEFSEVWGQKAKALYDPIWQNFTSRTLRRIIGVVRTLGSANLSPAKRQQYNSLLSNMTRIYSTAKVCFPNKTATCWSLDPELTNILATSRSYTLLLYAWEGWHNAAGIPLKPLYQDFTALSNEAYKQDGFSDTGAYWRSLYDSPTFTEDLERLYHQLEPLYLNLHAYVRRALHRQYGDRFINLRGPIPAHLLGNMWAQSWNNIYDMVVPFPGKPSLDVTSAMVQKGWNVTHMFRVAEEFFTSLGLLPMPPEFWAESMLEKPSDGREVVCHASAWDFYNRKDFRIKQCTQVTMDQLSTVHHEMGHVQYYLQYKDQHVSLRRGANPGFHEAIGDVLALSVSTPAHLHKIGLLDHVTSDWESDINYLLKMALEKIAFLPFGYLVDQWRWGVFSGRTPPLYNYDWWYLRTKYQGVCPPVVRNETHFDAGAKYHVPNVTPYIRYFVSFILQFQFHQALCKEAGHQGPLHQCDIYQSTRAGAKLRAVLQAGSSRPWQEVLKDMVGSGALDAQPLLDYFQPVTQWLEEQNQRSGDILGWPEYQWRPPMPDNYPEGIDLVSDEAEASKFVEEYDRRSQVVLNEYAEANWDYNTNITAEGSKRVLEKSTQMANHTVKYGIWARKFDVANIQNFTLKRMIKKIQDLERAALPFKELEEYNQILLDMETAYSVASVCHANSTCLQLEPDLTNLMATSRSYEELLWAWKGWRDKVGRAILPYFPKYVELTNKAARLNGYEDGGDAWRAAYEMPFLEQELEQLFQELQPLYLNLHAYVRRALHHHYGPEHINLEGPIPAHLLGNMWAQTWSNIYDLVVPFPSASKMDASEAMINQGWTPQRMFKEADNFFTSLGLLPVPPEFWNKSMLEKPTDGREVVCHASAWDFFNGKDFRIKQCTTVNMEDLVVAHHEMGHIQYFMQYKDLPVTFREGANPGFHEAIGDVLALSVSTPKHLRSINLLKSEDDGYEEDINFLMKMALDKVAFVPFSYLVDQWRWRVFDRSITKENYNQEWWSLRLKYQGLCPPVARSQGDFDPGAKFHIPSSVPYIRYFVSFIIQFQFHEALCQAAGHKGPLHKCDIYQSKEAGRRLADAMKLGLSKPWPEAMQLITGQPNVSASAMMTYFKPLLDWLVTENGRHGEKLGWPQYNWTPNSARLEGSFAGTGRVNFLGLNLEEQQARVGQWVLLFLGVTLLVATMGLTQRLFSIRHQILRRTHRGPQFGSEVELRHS
Assay: biochemical
Assay type: biochemical
Details: for pIC50: ACE from pig kidney, determined graphically, read-out: IC50-value (ACE inhibition)
Source text: These peptides were investigated for their inhibitory effect using an in vitro-ACE-inhibitor-assay with an angiotensin-converting-enzyme derived from pig kidney. Hippuryl-histidyl-leucin was used as a substrate. […] A concrete experimental description is given below.
The principle of the ACE-inhibition-assay was established by Chejung, H. S., Cushman, D. W.: “Inhibition of homogenous angiotensin converting enzyme of rabbit lung by synthetic venom peptides of Bothrops jararaca.” in Biochimica et Biophysica Acta 293, 451-563 (1973).
The assay was performed in 96 well HTRF-plates (Packard). The concentrations used for each well were:
1 mU ACE from pig kidney (EC 3.4.15.1 (Sigma)) in 30 μl of assay buffer (25 mM HEPES; 0,3 M NaCl, pH 8,2) and 20 μl inhibitor dissolved in assay buffer (0,35-200 μM). The reaction was started by adding 50 μl of 2 mM hippuryl-histidyl-leucin (Sigma) in assay buffer. The reaction was performed at room temperature (22° C.) for 30 minutes and terminated by adding 50 μl of 2 M NaOH. Afterwards 50 μl of 0,5% ortho-phtalaldehyd (Sigma) in methanol were added, 5 minutes later followed by 50 μl of 2,5 M HCl-solution to stabilize the developed fluorescence product.
The results were used to calculate the % inhibition. The IC50-values were determined graphically from a curve showing the dose-reaction ratio.
In order to minimize errors due to time-dependent differences, all pipetting steps were performed in a precise time schedule.

[1] = inhibitor 0.39 μM, replicates A-D
[2] = inhibitor 0.39 μM, replicates A-D, 0.39 µM
[3] = inhibitor 0.78125 μM, replicates A-D
[4] = inhibitor 0.78125 μM, replicates A-D, 0.78125 µM
[5] = inhibitor 1.5625 μM, replicates A-D
[6] = inhibitor 1.5625 μM, replicates A-D, 1.5625 µM
[7] = inhibitor 3.125 μM, replicates A-D
[8] = inhibitor 3.125 μM, replicates A-D, 3.125 µM
[9] = inhibitor 6.25 μM, replicates A-D
[10] = inhibitor 6.25 μM, replicates A-D, 6.25 µM
[11] = inhibitor 12.5 μM, replicates A-D
[12] = inhibitor 12.5 μM, replicates A-D, 12.5 µM
[13] = inhibitor 25 μM, replicates A-D
[14] = inhibitor 25 μM, replicates A-D, 25 µM
[15] = inhibitor 50 μM, replicates A-D
[16] = inhibitor 50 μM, replicates A-D, 50 µM
[17] = inhibitor 100 μM, replicates A-D
[18] = inhibitor 100 μM, replicates A-D, 100 µM
[19] = inhibitor 200 μM, replicates A-D
[20] = inhibitor 200 μM, replicates A-D, 200 µM

Substance	pIC50	fluorescence reading (ACE Inhibitor Assay) [1]	% inhibition (ACE Inhibitor Assay) [2]	fluorescence reading (ACE Inhibitor Assay) [3]	% inhibition (ACE Inhibitor Assay) [4]	fluorescence reading (ACE Inhibitor Assay) [5]	% inhibition (ACE Inhibitor Assay) [6]	fluorescence reading (ACE Inhibitor Assay) [7]	% inhibition (ACE Inhibitor Assay) [8]	fluorescence reading (ACE Inhibitor Assay) [9]	inhibition at 6.25 µM [9]	% inhibition (ACE Inhibitor Assay) [10]	fluorescence reading (ACE Inhibitor Assay) [11]	inhibition at 12.5 µM [11]	% inhibition (ACE Inhibitor Assay) [12]	fluorescence reading (ACE Inhibitor Assay) [13]	inhibition at 25 µM [13]	% inhibition (ACE Inhibitor Assay) [14]	fluorescence reading (ACE Inhibitor Assay) [15]	inhibition at 50 µM [15]	other results
LSPLPEVPP [Peptide S546]	5.46	803315 and 773719 and 787391 and 826280	14.38% and 12.86% and 8.53%	719861 and 687713 and 702450 and 763649	23.96% and 22.32% and 15.5%	591636 and 572728 and 566984 and 657580	36.77% and 37.41% and 27.32%	483121 and 472396 and 452574 and 495814	47.95% and 50.15% and 45.32%	308510 and 312423 and 322970 and 336576	66.2%	65.77% and 64.59% and 63.07%	225714 and 208268 and 221839 and 226385	75.4%	77.32% and 75.86% and 75.35%	116421 and 119382 and 118514 and 124101	87.6%	87.27% and 87.36% and 86.74%	69502 and 65379 and 67861 and 73176	92.8%	inhibition at 0.39 µM [1]: 11.1%; inhibition at 0.78125 µM [3]: 20.4%; inhibition at 1.5625 µM [5]: 34.7%; inhibition at 3.125 µM [7]: 46.8%; % inhibition (ACE Inhibitor Assay) [16]: 93.28% and 93.01% and 92.41%; fluorescence reading (ACE Inhibitor Assay) [17]: 37664 and 36789 and 37490 and 39445; inhibition at 100 µM [17]: 96.4%; % inhibition (ACE Inhibitor Assay) [18]: 96.47% and 96.39% and 96.17%; fluorescence reading (ACE Inhibitor Assay) [19]: 22822 and 23110 and 24700 and 22511; inhibition at 200 µM [19]: 98%; % inhibition (ACE Inhibitor Assay) [20]: 97.99% and 97.82% and 98.06%
PLPEVPP [Peptide S548, PLPEVPP]	4.68	850082 and 861072 and 990310 and 812986	5,85% and 4,63% and −9,77% and 9,98%	736956 and 848448 and 878121 and 787559	18,46% and 6,03% and 2,73% and 12,82%	672595 and 802519 and 857919 and 773857	25,63% and 11,15% and 4,98% and 14,35%	735840 and 756404 and 788637 and 719509	16,29% and 12,7% and 20,4%	644083 and 676136 and 699343 and 628007	28.8%	25,23% and 22,65% and 30,6%	668264 and 582524 and 619407 and 572641	37.2%	35,66% and 31,55% and 36,76%	411233 and 394114 and 413347 and 402465	54.8%	56,66% and 54,52% and 55,73%	291507 and 326054 and 343249 and 278402	68.1%	inhibition at 3.125 µM [7]: 18.6%; % inhibition (ACE Inhibitor Assay) [16]: 64,24% and 62,33% and 69,55%; fluorescence reading (ACE Inhibitor Assay) [17]: 181416 and 194177 and 204171 and 168452; inhibition at 100 µM [17]: 80.4%; % inhibition (ACE Inhibitor Assay) [18]: 78,94% and 77,82% and 81,8%; fluorescence reading (ACE Inhibitor Assay) [19]: 108115 and 108968 and 113955 and 101322; inhibition at 200 µM [19]: 88.5%; % inhibition (ACE Inhibitor Assay) [20]: 88,43% and 87,87% and 89,28%
GAALSPLPEVPP [Peptide S544]	4.54	841511 and 894833 and 882762 and 936430	9.4% and 3.63% and 4.93% and −0.88%	853374 and 881105 and 872351 and 929364	8.12% and 5.11% and 6.06% and −0.11%	864708 and 811879 and 787983 and 930998	6.89% and 12.61% and 15.2% and −0.29%	822128 and 840019 and 799408 and 883161	11.5% and 9.56% and 13.96% and 4.89%	670407 and 719205 and 725919 and 735049	27.9%	22.66% and 21.93% and 20.94%	668628 and 658367 and 643614 and 684354	28.1%	29.25% and 30.85% and 26.43%	494831 and 495043 and 522915 and 521311	47%	46.95% and 43.93% and 44.1%	263679 and 261020 and 262784 and 286592	72%	% inhibition (ACE Inhibitor Assay) [16]: 72.3% and 72.12% and 69.54%; fluorescence reading (ACE Inhibitor Assay) [17]: 154967 and 152193 and 156501 and 158918; inhibition at 100 µM [17]: 83.8%; % inhibition (ACE Inhibitor Assay) [18]: 84.1% and 83.63% and 83.37%; fluorescence reading (ACE Inhibitor Assay) [19]: 92239 and 93028 and 95574 and 94363; inhibition at 200 µM [19]: 90.6%; % inhibition (ACE Inhibitor Assay) [20]: 90.51% and 90.23% and 90.34%
